Experimental data as given in patent publication US10933059B2, “Combination, application thereof and treatment method” (KANGPU BIOPHARMACEUTICALS, LTD., priority 2016, dated 2021).
Read-outs that look alike come from different tables or passages of the source.

System: Vcap cells
Assay: CTG cell proliferation assay on Vcap cells (compounds alone or in combination, 5 days)
Assay type: cell-based
Procedure: In vitro test of the inhibition effect of the compound in combination with androgen receptor pathway modulators on the prostate cancer cell proliferation.
Inhibition effect of the compounds such as B101, B102, B103, B104, B105, B106, C111 and the like, androgen receptor pathway modulators, hormone compounds, alone or in combination with each other on the prostate cancer cell proliferation were tested on Vcap cells (androgen receptor (+) prostate cancer cells) (ATCC, catalogue number CRL-2876). The specific experimental operation was as follows: 5×10^3 Vcap cells per well were inoculated into 96-well plates with transparent bottom and white wall (Corning, catalogue number CLS3903) containing the specific medium, and were cultured in a 37° C., 5% CO2 incubator for 24 hours. The tested compounds and the androgen receptor pathway modulators were prepared to a 150 mM stocking solution with DMSO (Sigma, catalogue number 276855), diluted with culture medium to the desired concentrations (the final concentration of DMSO is 0.2%), and then added to each well, 2 wells/concentration, followed by being incubated in a 37° C., 5% CO2 incubator for 5 days. The tested compounds were used alone or in combination with other androgen receptor pathway modulators and/or hormone compounds respectively. […] After that, 100 μl of CellTiter-Glo® cell viability assay reagent (Promega, catalogue number G7570) was added to each well and mixed well on a vibrator for 10 minutes to induce cell lysis. The 96-well plate was placed at room temperature for 10 minutes, so as to stabilize its luminescence signal. A white bottom membrane was pasted on the bottom of the plate and the plate was tested using EnSpire.

[1] = tested compound 0.1 μM in combination with 1 μM B101
[2] = tested compound 0.1 μM in combination with 1 μM B105
[3] = tested compound 1 μM in combination with 1 μM B101
[4] = tested compound 1 μM in combination with 1 μM B105
[5] = tested compound 10 μM in combination with 1 μM B101
[6] = tested compound 10 μM in combination with 1 μM B105
[7] = Homo sapiens, VCaP, 120 h, tested compound alone, 0.1 μM, read-out: Survival rate of Vcap cells
[8] = Homo sapiens, VCaP, 120 h, tested compound alone, 1 μM, read-out: Survival rate of Vcap cells
[9] = Homo sapiens, VCaP, 120 h, tested compound alone, 10 μM, read-out: Survival rate of Vcap cells
[10] = tested compound 0.1 μM in combination with 1 μM ARN-509
[11] = tested compound 0.1 μM in combination with 1 μM Enzalutamide
[12] = tested compound 1 μM in combination with 1 μM ARN-509
[13] = tested compound 1 μM in combination with 1 μM Enzalutamide
[14] = tested compound 10 μM in combination with 1 μM ARN-509
[15] = tested compound 10 μM in combination with 1 μM Enzalutamide
[16] = Homo sapiens, VCaP, 120 h, read-out: Survival rate of Vcap cells, tested compound alone, 0.1 μM
[17] = Homo sapiens, VCaP, 120 h, read-out: Survival rate of Vcap cells, tested compound alone, 10 μM

Row | SMILES | Survival rate of Vcap cells [1] | Survival rate of Vcap cells [2] | Survival rate of Vcap cells [3] | Survival rate of Vcap cells [4] | Survival rate of Vcap cells [5] | Survival rate of Vcap cells [6] | Survival rate of Vcap cells (tested compound alone, 1 μM) | viability at 0.1 µM [7] | viability at 1 µM [8] | viability at 10 µM [9] | Survival rate of Vcap cells [10] | Survival rate of Vcap cells [11] | Survival rate of Vcap cells [12] | Survival rate of Vcap cells [13] | Survival rate of Vcap cells [14] | Survival rate of Vcap cells [15] | further results
1 | CC(=O)Nc1ccc(OC[C@](C)(O)C(=O)Nc2ccc([N+](=O)[O-])c(C(F)(F)F)c2)cc1 [Andarine, reference compound] | 69.8% | 71.1% | 65.5% | 64.6% | 53.8% | 53.5% | 82.7% | – | – | – | – | – | – | – | – | – | Survival rate of Vcap cells (tested compound alone, 0.1 μM): 85.6%; Survival rate of Vcap cells (tested compound alone, 10 μM): 69.4%
2 | Nc1cc(F)cc2c1CN([C@H]1CCC(=O)NC1=O)C2=O [B102] | – | – | – | – | – | – | 80.9% | 84.7% | 80.9% | 78.4% | 47.2% | 46.3% | 40.2% | 41.1% | 38.3% | 40.1% | –
3 | Nc1cc(F)cc2c1CN([C@@H]1CCC(=O)NC1=O)C2=O [B103] | – | – | – | – | – | – | 84.1% | 86.3% | 84.1% | 85.5% | 48.8% | 50.2% | 41.7% | 42.7% | 38.3% | 42.9% | –
4 | [2H]C1(N2Cc3c(N)cc(F)cc3C2=O)CCC(=O)NC1=O (stereo not drawn) [B104] | – | – | – | – | – | – | 77.4% | 84.4% | 77.4% | 74% | 45.7% | 47.1% | 40.5% | 41.2% | 37.8% | 38.8% | –
5 | [2H][C@@]1(N2Cc3c(N)cc(F)cc3C2=O)CCC(=O)NC1=O [B106] | – | – | – | – | – | – | 79.0% | 86.8% | 79% | 74.1% | 50.6% | 50.6% | 41.1% | 40.5% | 39.9% | 38.2% | –
6 | [2H][C@]1(N2Cc3c(OCc4ccc(CN5CCOCC5)cc4F)cccc3C2=O)CCC(=O)NC1=O [C111] | – | – | – | – | – | – | – | 81.5% | 81% | 77% | 37.0% | 36.3% | 35.6% | 35.8% | 37.3% | 36.6% | inhibition at 0.05 µM (Homo sapiens, VCaP, 120 h, B105 or C111 0.05 μM alone, 5 days, read-out: Vcap cell proliferation inhibition rate): 19.6%; inhibition at 0.14 µM (Homo sapiens, VCaP, 120 h, B105 or C111 0.14 μM alone, 5 days, read-out: Vcap cell proliferation inhibition rate): 20.9%; inhibition at 1.23 µM (Homo sapiens, VCaP, 120 h, B105 or C111 1.23 μM alone, 5 days, read-out: Vcap cell proliferation inhibition rate): 23.4%; inhibition at 3.7 µM (Homo sapiens, VCaP, 120 h, B105 or C111 3.70 μM alone, 5 days, read-out: Vcap cell proliferation inhibition rate): 25.4%; inhibition at 11.11 µM (Homo sapiens, VCaP, 120 h, B105 or C111 11.11 μM alone, 5 days, read-out: Vcap cell proliferation inhibition rate): 28.8%; inhibition at 33.33 µM (Homo sapiens, VCaP, 120 h, B105 or C111 33.33 μM alone, 5 days, read-out: Vcap cell proliferation inhibition rate): 29.1%; inhibition at 100 µM (Homo sapiens, VCaP, 120 h, B105 or C111 100.00 μM alone, 5 days, read-out: Vcap cell proliferation inhibition rate): 31.6%; inhibition at 300 µM (Homo sapiens, VCaP, 120 h, B105 or C111 300.00 μM alone, 5 days, read-out: Vcap cell proliferation inhibition rate): 33.9%; Survival rate of Vcap cells (tested compound 0.1 μM in combination with 1 μM Abiraterone acetate): 65.5%; Survival rate of Vcap cells (tested compound 0.1 μM in combination with 1 μM Galeterone): 46.6%; Survival rate of Vcap cells (tested compound 0.1 μM in combination with 1 μM ODM-201): 45.9%; Survival rate of Vcap cells (tested compound 1 μM in combination with 1 μM Abiraterone acetate): 68.5%; Survival rate of Vcap cells (tested compound 1 μM in combination with 1 μM Galeterone): 47.0%; Survival rate of Vcap cells (tested compound 1 μM in combination with 1 μM ODM-201): 43.1%; Survival rate of Vcap cells (tested compound 10 μM in combination with 1 μM Abiraterone acetate): 66.1%; Survival rate of Vcap cells (tested compound 10 μM in combination with 1 μM Galeterone): 47.8%; Survival rate of Vcap cells (tested compound 10 μM in combination with 1 μM ODM-201): 37.2%
7 | CC(=O)O[C@]1(C(C)=O)CC[C@H]2[C@@H]3C=C(Cl)C4=CC(=O)[C@@H]5C[C@@H]5[C@]4(C)[C@H]3CC[C@@]21C [Cyproterone Acetate, reference compound] | 85.0% | 82.1% | 85.0% | 84.0% | 78.9% | 79.4% | – | 97.2% | 96% | 83.5% | – | – | – | – | – | – | –
8 | C[C@]12CC[C@H](O)C[C@@H]1CC[C@@H]1[C@@H]2CC[C@]2(C)C(=O)CC[C@@H]12 [Epiandrosterone, reference compound] | – | 71.5% | 71.1% | 64.6% | 79.8% | 77.4% | – | – | – | – | – | – | – | – | – | – | –
9 | CC(C)C(=O)Nc1ccc([N+](=O)[O-])c(C(F)(F)F)c1 [Flutamide, reference compound] | 80.4% | 76.5% | 65.1% | 64.6% | 42.8% | 43.8% | – | 105% | 96.7% | 73.1% | – | – | – | – | – | – | –
10 | C[C@](O)(COc1ccc(C#N)cc1)C(=O)Nc1ccc(C#N)c(C(F)(F)F)c1 [MK-2866, reference compound] | 61.4% | 62.6% | 63.6% | 59.7% | 52.7% | 52.5% | – | – | – | – | – | – | – | – | – | – | viability at 0.1 µM [16]: 76.5%; viability at 1 µM (Homo sapiens, VCaP, 120 h, read-out: Survival rate of Vcap cells, tested compound alone, 1 μM): 77.4%; viability at 10 µM [17]: 69.4%
11 | CC(=O)O[C@]1(C(C)=O)CC[C@H]2[C@@H]3C=C(C)C4=CC(=O)CC[C@]4(C)[C@H]3CC[C@@]21C [Megestrol Acetate, reference compound] | 85.2% | 82.1% | 83.1% | 83.3% | 75.2% | 76.6% | – | 99.7% | 103% | 88.9% | – | – | – | – | – | – | –
12 | CC(O)c1cc(C(=O)N[C@@H](C)Cn2ccc(-c3ccc(C#N)c(Cl)c3)n2)[nH]n1 (stereo partly drawn) [ODM-201, reference compound] | – | – | – | – | – | – | 69.0% | – | 69% | – | – | – | – | – | – | – | viability at 0.1 µM [16]: 90.7%; viability at 10 µM [17]: 75.4%
13 | C[C@]12C=CC(=O)C=C1CC[C@@H]1[C@@H]2C(=O)C[C@@]2(C)[C@H]1CC[C@]2(O)C(=O)CO [Prednisone, reference compound] | 84.0% | 87.5% | 76.9% | 80.6% | 75.3% | 79.7% | – | 99.1% | 99.7% | 99.4% | – | – | – | – | – | – | –
14 | CC(=O)S[C@@H]1CC2=CC(=O)CC[C@]2(C)[C@H]2CC[C@@]3(C)[C@@H](CC[C@@]34CCC(=O)O4)[C@H]12 [Spironolactone, reference compound] | 85.3% | 87.2% | 77.3% | 79.6% | 65.9% | 64.5% | – | 100% | 91.3% | 72.5% | – | – | – | – | – | – | –
15 | CC(O)(CS(=O)(=O)c1ccc(F)cc1)C(=O)Nc1ccc(C#N)c(C(F)(F)F)c1 (stereo not drawn) [bicalutamide, reference compound] | 70.5% | 75.9% | 66.5% | 67.3% | 64.0% | 63.4% | – | – | 94% | 92% | – | – | – | – | – | – | viability at 0.1 µM [16]: 99.2%
